This passage reports Emax and EC50 results from patent US9376420B2 (YUHAN CORPORATION, priority 2012, dated 2016).

By EC50 is commonly meant the midpoint of the concentration-response curve.

The structures appear in SMILES notation.

The assay has as its target T1, human LXRβ (Homo sapiens, UniProt P55055).
T1 construct: expressed in transfected cells; host or cells: HEK293 cells (ATCC CRL-1573), transient transfection with pFA-hLXRβ/GAL4 and pUAS
T1 sequence (P55055 222-460 limits assumed): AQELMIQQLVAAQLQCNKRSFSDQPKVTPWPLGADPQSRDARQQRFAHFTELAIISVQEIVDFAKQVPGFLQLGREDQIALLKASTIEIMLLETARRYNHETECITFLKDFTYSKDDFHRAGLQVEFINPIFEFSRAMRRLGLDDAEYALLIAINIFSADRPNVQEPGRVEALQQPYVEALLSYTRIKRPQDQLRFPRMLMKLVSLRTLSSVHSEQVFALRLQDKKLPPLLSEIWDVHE
In words: Assay for Transcriptional Activity of LXRβ (GAL4-hLXRβ LBD luciferase reporter, transient transfection). Type of assay: cell-based. The conditions noted are these: HEK293 cells transfected with pFA-hLXRβ/GAL4 and pUAS, 24 hours; for Emax: fold value in comparison with the control (DMSO-treated group); for EC50: increase of transcriptional activity of LXRβ, average of three independent tests. In a few lines: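 EC50 values, averaged over three independent runs, come from a four-parameter fit of 9-point half-log curves spanning 0.01–50 μM. Luciferase output was read in lysed HEK293 cells 24 h after dosing at 37 °C, following transient transfection with a GAL4-human LXRβ LBD fusion plus GAL4-responsive reporter.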
In general terms: A reporter such as luciferase makes a cellular process visible.

`O=S(=O)(C1CC1)N1CCN(c2ccc(C3CC(C(O)(C(F)(F)F)C(F)(F)F)=NN3c3ccccc3Cl)cc2)CC1` (stereo not drawn) [Example 315, 1-(2-chloro-phenyl)-5-[4-(4-cyclopropanesulfonyl-piperazin-1-yl)-phenyl]-3-[di-(trifluoromethyl)-hydroxy-methyl]-4,5-dihydro-1H-pyrazole] had an Emax of 59 fold and an EC50 of 1490 nM.

`CN(C)S(=O)(=O)N1CCN(c2ccc(C3CC(C(O)(C(F)(F)F)C(F)(F)F)=NN3c3ccccc3Cl)cc2)CC1` (stereo not drawn) [Example 316, 1-(2-chloro-phenyl)-5-[4-(4-dimethylsulfamoyl-piperazin-1-yl)-phenyl]-3-[di-(trifluoromethyl)-hydroxy-methyl]-4,5-dihydro-1H-pyrazole] came in with an Emax of 43 fold and an EC50 of 706 nM.

The compound `O=S(=O)(N1CCCC1)N1CCN(c2ccc(C3CC(C(O)(C(F)(F)F)C(F)(F)F)=NN3c3ccccc3Cl)cc2)CC1` (stereo not drawn) [Example 319, 1-(2-chloro-phenyl)-5-{4-[4-(pyrrolidine-1-sulfonyl)-piperazin-1-yl]-phenyl}-3-[di-(trifluoromethyl)-hydroxy-methyl]-4,5-dihydro-1H-pyrazole] displayed an Emax of 39 fold and an EC50 of 1830 nM.

With `CC(C)(O)C(=O)N1CCN(c2ccc(C3CC(C(O)(C(F)(F)F)C(F)(F)F)=NN3c3ccccc3Cl)cc2)CC1` (stereo not drawn) [Example 320, 1-(2-chloro-phenyl)-5-{4-[4-(2-hydroxy-2-methyl-propionyl)-piperazin-1-yl]-phenyl}-3-(di-(trifluoromethyl)-hydroxy-methyl]-4,5-dihydro-1H-pyrazole], the Emax is given as 17 fold and a half-maximal effect (EC50) was put at 1660 nM.

Regarding `CS(=O)(=O)N1CCCN(c2ccc(C3CC(C(O)(C(F)(F)F)C(F)(F)F)=NN3c3ccccc3Cl)cc2)CC1` (stereo not drawn) [Example 322, 1-(2-chloro-phenyl)-5-[4-(4-methanesulfonyl-homopiperazin-1-yl)-phenyl]-3-[di-(trifluoromethyl)-hydroxy-methyl]-4,5-dihydro-1H-pyrazole], the Emax was 64 fold and the 50% effective concentration (EC50) turned out to be 778 nM.

As for `CCS(=O)(=O)N1CCCN(c2ccc(C3CC(C(O)(C(F)(F)F)C(F)(F)F)=NN3c3ccccc3Cl)cc2)CC1` (stereo not drawn) [Example 323, 1-(2-chloro-phenyl)-5-[4-(4-ethanesulfonyl-homopiperazin-1-yl)-phenyl]-3-[di-(trifluoromethyl)-hydroxy-methyl]-4,5-dihydro-1H-pyrazole], the Emax was determined as 54 fold and the half-maximal effective concentration (EC50) was found to be 344 nM.

Take `CC(C)S(=O)(=O)N1CCCN(c2ccc(C3CC(C(O)(C(F)(F)F)C(F)(F)F)=NN3c3ccccc3Cl)cc2)CC1` (stereo not drawn) [Example 324, 1-(2-chloro-phenyl)-5-[4-(4-isopropylsulfonyl-homopiperazin-1-yl)-phenyl]-3-[di-(trifluoromethyl)-hydroxy-methyl]-4,5-dihydro-1H-pyrazole]: the Emax is 37 fold and the EC50 came to 3750 nM.

For `O=S(=O)(C1CC1)N1CCCN(c2ccc(C3CC(C(O)(C(F)(F)F)C(F)(F)F)=NN3c3ccccc3Cl)cc2)CC1` (stereo not drawn) [Example 325, 1-(2-chloro-phenyl)-5-[4-(4-cyclopropanesulfonyl-homopiperazin-1-yl)-phenyl]-3-[di-(trifluoromethyl)-hydroxy-methyl]-4,5-dihydro-1H-pyrazole], the Emax is listed as 53 fold and the midpoint of the response, the EC50, lay at 800 nM.

Consider `CN(C)S(=O)(=O)N1CCCN(c2ccc(C3CC(C(O)(C(F)(F)F)C(F)(F)F)=NN3c3ccccc3Cl)cc2)CC1` (stereo not drawn) [Example 326, 1-(2-chloro-phenyl)-5-[4-(4-dimethylsulfamoyl-homopiperazin-1-yl)-phenyl]-3-[di-(trifluoromethyl)-hydroxy-methyl]-4,5-dihydro-1H-pyrazole], for which the Emax is given as 51 fold and the EC50 was determined as 550 nM.
